This passage reports IC50 results from paper PMC3929320 (Journal of medicinal chemistry, 2010).

Experiment [1] concerns the target T1, human kynurenine aminotransferase II (hKAT II) (Homo sapiens, UniProt Q8N5Z0). Put plainly: recombinant enzyme assay, L-KYN to KYNA conversion by HPLC. Format: biochemical.
Target sequence in this assay (Q8N5Z0 whole entry): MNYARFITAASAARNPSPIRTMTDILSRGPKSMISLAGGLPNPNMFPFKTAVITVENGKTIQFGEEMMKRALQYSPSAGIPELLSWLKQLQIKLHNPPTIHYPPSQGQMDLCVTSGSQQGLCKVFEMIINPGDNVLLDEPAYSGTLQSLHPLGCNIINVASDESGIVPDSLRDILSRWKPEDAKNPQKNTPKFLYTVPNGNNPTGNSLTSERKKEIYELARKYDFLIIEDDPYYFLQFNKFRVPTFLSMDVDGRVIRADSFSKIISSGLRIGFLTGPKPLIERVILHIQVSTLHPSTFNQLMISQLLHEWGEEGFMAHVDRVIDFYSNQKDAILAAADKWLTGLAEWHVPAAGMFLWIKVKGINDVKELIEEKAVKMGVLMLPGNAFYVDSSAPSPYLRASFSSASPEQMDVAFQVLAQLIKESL
Experiment [2] addresses T1, human kynurenine aminotransferase II (hKAT II). Put plainly: X-ray crystal structure at […] Å. Format: biochemical.
Target sequence in this assay (Q8N5Z0 2-425): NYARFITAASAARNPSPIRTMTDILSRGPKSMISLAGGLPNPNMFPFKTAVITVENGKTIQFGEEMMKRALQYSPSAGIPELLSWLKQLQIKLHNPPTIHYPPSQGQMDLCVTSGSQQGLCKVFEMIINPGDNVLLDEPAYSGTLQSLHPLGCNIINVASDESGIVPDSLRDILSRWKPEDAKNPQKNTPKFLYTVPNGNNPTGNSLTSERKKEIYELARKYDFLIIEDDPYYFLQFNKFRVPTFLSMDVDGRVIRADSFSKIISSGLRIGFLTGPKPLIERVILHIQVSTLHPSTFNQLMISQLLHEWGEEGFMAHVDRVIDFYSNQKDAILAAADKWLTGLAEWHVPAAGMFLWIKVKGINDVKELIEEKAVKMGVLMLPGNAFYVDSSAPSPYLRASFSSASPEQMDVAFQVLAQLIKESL

In the case of `C[C@@H]1COc2c(N3CCN(N)CC3)c(F)cc3c(=O)c(C(=O)O)cn1c23` [1*, 1* (stereoisomer of BFF-122)], the IC50 in experiment [1] was 0.91 and 1.5 (two enantiomers) μM.
`C[C@H]1COc2c(N3CCN(N)CC3)c(F)cc3c(=O)c(C(=O)O)cn1c23` [compound 1, (S)-(−)-9-(4-aminopiperazin-1-yl)-8-fluoro-3-methyl-6-oxo-2,3-dihydro-6H-1-oxa-3a-azaphenalene-5-carboxylic acid]: the IC50 in experiment [2] is 0.91 and 1.5 (two enantiomers) μM.
